Laboratory results taken from ChEMBL document CHEMBL1201862, “PubChem BioAssay data set” (2004).
Active and inactive are the calls of the source.

Columns and labels:
[1] = Luminescence Cell-Based Dose Response HTS to Identify Activators of Luciferase Translation or Activity in H4 […] Cells. [Related pubchem assays: 1829 (Project Summary), 1814 (Primary HTS)]; format: functional
T-cell = assay: inhibitors of CD8+ T cell–vesicle binding, dose response, mouse 2C CD8+ T cells, flow cytometry (AID 485284); format: functional
[2] = Luminescence Cell-Based Dose Confirmation HTS to Identify Activators of 5'UTR Stem-Loop Driven Alpha-Synuclein mRNA Translation in H4 Neuroglioblastoma Cells. [Related pubchem assays: 1829 (Project Summary), 1814 (Primary HTS)]; format: functional
H4 = assay: Luminescence Cell-Based Dose Response HTS to Identify Activators of 5'UTR Stem-Loop Driven Prion Protein mRNA Translation in H4 Neuroglioblastoma Cells. [Related pubchem assays: 1829 (Project Summary), 1814 (Primary HTS)]; format: functional; details: Homo sapiens
[3] = target: Eukaryotic translation initiation factor 4H (Homo sapiens, UniProt Q15056); assay: eIF4H inhibition in translation initiation, SAR follow-up (AID 435011); format: functional
[4] = target: Polyadenylate-binding protein 1 (Homo sapiens, UniProt P11940); assay: PABP inhibition in translation initiation, SAR follow-up (AID 435018); format: functional
Chain of Polyadenylate-binding protein 1 (P11940 whole entry): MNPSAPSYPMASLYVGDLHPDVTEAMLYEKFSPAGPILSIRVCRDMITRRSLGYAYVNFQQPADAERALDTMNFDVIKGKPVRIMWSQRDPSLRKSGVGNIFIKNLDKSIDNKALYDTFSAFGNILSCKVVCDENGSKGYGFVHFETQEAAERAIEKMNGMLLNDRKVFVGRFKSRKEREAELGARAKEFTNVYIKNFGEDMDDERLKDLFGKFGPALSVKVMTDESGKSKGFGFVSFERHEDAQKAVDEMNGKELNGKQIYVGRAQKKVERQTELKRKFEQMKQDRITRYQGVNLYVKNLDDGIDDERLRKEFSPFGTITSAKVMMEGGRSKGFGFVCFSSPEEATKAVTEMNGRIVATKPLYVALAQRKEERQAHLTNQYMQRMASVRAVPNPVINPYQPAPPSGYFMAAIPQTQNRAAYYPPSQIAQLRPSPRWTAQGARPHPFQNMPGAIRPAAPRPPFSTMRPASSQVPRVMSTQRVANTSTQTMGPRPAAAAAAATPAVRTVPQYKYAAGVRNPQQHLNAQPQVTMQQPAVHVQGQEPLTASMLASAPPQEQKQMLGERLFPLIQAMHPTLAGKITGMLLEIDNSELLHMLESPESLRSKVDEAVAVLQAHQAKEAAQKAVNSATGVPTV

[5] = target: T1, Corticotropin-releasing factor receptor 2/Corticotropin-releasing factor-binding protein (Homo sapiens, UniProt P24387+Q13324); assay: activators of CRF receptor 2 with binding protein – uHTS hits, confirmation (AID 602473); format: functional; details: read-out: EC50_Mean
T1 sequence (Q13324 whole entry): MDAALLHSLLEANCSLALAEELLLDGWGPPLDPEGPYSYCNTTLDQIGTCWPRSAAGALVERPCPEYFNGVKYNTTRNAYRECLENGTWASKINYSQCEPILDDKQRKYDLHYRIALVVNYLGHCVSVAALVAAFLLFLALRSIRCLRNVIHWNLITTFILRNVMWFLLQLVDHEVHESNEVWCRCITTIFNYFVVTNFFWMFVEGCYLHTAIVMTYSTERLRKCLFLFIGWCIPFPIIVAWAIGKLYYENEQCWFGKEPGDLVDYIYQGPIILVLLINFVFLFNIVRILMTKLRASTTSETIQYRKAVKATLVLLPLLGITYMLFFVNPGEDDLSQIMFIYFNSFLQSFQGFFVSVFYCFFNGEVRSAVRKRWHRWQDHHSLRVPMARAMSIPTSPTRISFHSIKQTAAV
T1 sequence (P24387 whole entry): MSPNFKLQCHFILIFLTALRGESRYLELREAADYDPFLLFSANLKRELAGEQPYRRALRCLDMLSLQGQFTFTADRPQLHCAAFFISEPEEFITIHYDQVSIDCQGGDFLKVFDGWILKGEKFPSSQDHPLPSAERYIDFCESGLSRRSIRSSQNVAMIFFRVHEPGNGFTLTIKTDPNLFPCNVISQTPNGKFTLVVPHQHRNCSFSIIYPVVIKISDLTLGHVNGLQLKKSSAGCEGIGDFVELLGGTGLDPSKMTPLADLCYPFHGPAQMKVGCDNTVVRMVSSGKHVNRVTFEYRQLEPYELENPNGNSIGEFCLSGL

[6] = target: Intestinal-type alkaline phosphatase (Homo sapiens, UniProt P09923); assay: Dose Response confirmation of uHTS hits from a small molecule inhibitors of human intestinal alkaline phosphatase via a luminescent assay. [Related pubchem assays (depositor defined):AID2544, AID2574]; format: functional
[7] = target: T2, RNA-binding protein pos-1 (Caenorhabditis elegans, UniProt G5EF15); assay: inhibitors of POS-1/mex-3 RNA binding, dose response, biochemical, fluorescence polarization (AID 1964);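 further: purified POS-1 fused to maltose binding protein made in E. coli; potency of compounds blocking POS-1 binding to fluorescent RNA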
T2 sequence (G5EF15 whole entry): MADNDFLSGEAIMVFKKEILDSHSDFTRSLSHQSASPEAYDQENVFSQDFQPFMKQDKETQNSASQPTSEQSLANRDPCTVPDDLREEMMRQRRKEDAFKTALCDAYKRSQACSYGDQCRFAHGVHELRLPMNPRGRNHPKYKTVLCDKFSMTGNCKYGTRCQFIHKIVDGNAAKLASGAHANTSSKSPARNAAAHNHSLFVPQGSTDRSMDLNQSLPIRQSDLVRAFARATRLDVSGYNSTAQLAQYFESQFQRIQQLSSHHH

Coagulation factor XII = target: T3, Coagulation factor XII (Homo sapiens, UniProt P00748); assay: FXIIa inhibitor potency, concentration-response, biochemical (AID 716); format: functional
T3 sequence (P00748 whole entry): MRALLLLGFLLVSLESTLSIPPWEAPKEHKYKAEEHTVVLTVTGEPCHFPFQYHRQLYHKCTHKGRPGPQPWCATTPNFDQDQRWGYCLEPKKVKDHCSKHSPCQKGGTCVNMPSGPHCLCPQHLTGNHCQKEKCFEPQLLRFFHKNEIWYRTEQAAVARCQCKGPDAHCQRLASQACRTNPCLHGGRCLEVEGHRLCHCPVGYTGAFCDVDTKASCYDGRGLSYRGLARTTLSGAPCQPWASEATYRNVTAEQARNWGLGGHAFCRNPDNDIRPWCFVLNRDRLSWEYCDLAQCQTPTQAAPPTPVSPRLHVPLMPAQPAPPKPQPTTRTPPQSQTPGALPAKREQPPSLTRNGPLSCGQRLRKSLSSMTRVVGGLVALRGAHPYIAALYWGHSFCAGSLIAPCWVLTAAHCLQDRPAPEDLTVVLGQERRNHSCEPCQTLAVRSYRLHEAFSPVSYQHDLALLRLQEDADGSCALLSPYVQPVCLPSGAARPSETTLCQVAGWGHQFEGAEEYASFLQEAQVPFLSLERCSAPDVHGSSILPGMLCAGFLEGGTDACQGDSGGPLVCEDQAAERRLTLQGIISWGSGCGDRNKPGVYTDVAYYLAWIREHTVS

Caspase-3 = target: T4, Caspase-3 (Homo sapiens, UniProt P42574); assay: procaspase-3 activation potency of dual hits, dose response, counter-screen for dual procaspase-3/7 activator project, biochemical, absorbance, PC-3 D3A mutant (AID 504328)
T4 sequence (P42574 whole entry): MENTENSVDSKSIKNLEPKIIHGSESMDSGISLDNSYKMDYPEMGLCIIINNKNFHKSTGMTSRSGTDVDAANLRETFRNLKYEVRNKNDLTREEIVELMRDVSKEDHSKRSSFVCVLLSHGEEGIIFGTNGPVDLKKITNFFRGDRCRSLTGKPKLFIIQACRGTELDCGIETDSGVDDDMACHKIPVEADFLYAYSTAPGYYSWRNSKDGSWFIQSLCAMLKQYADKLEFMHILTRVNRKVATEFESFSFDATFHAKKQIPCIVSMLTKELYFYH

Caspase-7 = Caspase-7 (Homo sapiens, UniProt P55210); assay: procaspase-7 activators, dose response, dual procaspase-3/-7 activator project, biochemical, absorbance, human (AID 504330)
Mu-type opioid receptor = Mu-type opioid receptor (Homo sapiens, UniProt P35372); assay: SAR Analysis of Agonists of the MOR Receptor using an Image-Based Assay - Set 3. [Related pubchem assays (depositor defined):AID1777, AID1785, AID1786, AID1966, AID2133, AID2136, AID2284, AID2285, AID2352]; format: functional
Chain of Mu-type opioid receptor (P35372 whole entry): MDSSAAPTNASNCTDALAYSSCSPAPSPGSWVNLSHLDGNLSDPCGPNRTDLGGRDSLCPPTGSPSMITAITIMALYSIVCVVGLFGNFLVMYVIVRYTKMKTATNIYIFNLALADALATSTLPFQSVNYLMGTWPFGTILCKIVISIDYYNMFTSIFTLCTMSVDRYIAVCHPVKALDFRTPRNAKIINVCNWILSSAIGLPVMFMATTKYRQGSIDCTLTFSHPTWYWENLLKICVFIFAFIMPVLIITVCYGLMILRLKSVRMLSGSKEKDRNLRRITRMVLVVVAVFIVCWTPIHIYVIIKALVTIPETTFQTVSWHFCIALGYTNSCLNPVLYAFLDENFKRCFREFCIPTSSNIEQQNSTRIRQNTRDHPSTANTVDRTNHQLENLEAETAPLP

[8] = target: Delta-type opioid receptor (Homo sapiens, UniProt P41143); assay: SAR Analysis of Agonists of the DOR Receptor using an Image-Based Assay - Set 3. [Related pubchem assays (depositor defined):AID1777, AID1786]; format: functional
Chain of Delta-type opioid receptor (P41143 whole entry): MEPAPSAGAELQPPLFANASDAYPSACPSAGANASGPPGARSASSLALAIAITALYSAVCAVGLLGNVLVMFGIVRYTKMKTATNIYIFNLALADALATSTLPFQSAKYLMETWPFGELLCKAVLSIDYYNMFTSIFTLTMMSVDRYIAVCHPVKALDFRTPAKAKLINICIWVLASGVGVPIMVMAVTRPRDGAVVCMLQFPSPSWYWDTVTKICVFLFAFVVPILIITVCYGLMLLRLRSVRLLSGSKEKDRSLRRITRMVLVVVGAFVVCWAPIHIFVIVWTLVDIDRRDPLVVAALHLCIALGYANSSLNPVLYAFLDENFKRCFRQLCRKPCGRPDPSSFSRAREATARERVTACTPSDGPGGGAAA

[9] = target: T5, Kappa-type opioid receptor (Homo sapiens, UniProt P41145); assay: SAR analysis of small molecule agonists of the kappa opioid receptor via a luminescent beta-arrestin assay - Set 3. [Related pubchem assays (depositor defined):AID1777, AID1785, AID1786, AID1966, AID2133, AID2136, AID2284, AID2500]; format: functional
T5 sequence (P41145 whole entry): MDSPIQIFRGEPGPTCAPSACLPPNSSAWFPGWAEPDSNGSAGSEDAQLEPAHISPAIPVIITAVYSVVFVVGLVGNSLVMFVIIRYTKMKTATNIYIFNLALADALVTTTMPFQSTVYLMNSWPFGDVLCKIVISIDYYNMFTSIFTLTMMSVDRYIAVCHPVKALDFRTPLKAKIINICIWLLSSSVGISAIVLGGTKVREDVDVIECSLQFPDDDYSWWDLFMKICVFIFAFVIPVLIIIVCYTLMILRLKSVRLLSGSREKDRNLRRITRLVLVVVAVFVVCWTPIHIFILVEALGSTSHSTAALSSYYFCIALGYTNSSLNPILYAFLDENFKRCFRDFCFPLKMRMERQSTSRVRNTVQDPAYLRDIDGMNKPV

[10] = target: T5, Kappa-type opioid receptor; assay: KOR agonist analogs, arrestin-GFP redistribution, SAR follow-up, imaging, image-based, set 3 (AID 488833); format: functional
[11] = target: Voltage-dependent T-type calcium channel subunit alpha-1H (Homo sapiens, UniProt O95180); assay: Cav3.2 T-type channel inhibitors, cell-based, synthetic library set 1, calcium flux (AID 493022); format: functional
Chain of Voltage-dependent T-type calcium channel subunit alpha-1H (O95180 whole entry): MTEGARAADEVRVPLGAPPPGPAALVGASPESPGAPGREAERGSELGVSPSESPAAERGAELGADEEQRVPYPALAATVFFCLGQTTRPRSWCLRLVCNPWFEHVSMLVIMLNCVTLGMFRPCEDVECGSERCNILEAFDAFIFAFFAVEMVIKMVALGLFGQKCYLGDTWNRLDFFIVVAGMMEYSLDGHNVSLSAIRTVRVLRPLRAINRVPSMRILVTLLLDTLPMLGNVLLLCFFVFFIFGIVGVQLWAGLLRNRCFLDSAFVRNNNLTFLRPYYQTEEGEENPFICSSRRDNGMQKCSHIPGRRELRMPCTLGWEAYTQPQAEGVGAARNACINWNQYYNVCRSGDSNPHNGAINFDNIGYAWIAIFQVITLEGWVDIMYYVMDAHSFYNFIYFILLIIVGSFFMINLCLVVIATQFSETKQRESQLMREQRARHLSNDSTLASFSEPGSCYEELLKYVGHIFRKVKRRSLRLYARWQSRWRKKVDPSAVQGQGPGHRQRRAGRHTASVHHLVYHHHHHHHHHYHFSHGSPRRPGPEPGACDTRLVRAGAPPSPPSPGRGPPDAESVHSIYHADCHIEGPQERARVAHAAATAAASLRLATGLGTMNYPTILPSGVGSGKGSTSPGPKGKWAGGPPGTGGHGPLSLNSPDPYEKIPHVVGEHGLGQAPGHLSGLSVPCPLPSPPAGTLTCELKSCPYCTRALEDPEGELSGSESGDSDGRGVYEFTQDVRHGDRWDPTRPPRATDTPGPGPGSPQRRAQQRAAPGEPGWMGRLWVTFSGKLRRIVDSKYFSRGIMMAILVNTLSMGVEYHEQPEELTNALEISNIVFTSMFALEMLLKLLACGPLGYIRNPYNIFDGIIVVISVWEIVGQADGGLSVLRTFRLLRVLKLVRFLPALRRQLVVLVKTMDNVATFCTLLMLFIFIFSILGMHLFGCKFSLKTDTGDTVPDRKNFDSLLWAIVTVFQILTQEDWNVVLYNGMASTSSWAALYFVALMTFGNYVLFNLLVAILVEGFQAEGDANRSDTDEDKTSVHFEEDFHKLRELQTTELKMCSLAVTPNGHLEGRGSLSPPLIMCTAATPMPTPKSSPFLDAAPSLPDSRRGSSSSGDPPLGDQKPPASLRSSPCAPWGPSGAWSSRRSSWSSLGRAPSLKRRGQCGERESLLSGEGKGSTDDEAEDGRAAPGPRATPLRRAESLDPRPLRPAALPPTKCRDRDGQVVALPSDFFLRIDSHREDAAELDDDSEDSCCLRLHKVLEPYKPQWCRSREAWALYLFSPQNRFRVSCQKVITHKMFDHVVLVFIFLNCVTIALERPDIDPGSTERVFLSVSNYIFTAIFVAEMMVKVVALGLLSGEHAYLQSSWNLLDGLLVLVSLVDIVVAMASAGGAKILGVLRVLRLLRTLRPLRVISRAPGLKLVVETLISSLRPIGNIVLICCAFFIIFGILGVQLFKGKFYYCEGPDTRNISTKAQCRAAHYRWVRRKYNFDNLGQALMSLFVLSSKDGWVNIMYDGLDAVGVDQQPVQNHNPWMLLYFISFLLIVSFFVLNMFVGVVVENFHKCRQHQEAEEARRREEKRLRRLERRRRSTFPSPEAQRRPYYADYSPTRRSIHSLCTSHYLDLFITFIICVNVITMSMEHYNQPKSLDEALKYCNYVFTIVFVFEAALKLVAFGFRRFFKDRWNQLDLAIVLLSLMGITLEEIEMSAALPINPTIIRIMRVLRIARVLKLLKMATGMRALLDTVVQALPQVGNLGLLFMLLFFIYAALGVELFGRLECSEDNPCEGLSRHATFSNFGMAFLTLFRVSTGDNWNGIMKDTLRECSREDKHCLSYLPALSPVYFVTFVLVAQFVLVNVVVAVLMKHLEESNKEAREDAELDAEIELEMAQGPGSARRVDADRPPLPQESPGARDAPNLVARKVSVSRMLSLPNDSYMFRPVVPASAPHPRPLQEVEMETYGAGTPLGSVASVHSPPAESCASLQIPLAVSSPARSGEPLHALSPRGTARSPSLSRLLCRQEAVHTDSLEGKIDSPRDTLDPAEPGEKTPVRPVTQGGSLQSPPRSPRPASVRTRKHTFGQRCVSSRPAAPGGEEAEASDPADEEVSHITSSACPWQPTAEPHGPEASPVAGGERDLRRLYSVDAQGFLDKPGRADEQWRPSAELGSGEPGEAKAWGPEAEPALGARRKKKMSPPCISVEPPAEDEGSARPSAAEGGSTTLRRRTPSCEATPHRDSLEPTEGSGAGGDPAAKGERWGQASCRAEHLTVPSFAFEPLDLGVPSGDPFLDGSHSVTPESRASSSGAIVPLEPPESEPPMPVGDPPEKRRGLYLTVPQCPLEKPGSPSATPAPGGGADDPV

[12] = target: Potassium voltage-gated channel subfamily KQT member 2 (Rattus norvegicus, UniProt O88943); assay: retigabine-insensitive KCNQ2 potentiators, concentration-response, dose response, cell-based, retigabine-insensitive compounds (AID 2654); format: functional
[13] = cytotoxicity in NIH/3T3 mouse fibroblasts, dose response, cytotoxicity control, cell-based, mouse embryonic fibroblasts, dry powder, set 2 (AID 493247); format: functional; details: Fibroblast
Trypanosoma cruzi = assay: growth inhibition of intracellular Trypanosoma cruzi, dose response, cell-based, plate reader, dry powder, set 3 (AID 493197); format: functional
[14] = target: Peroxisome proliferator-activated receptor gamma/Nuclear receptor coactivator 3 (Homo sapiens, UniProt P37231); assay: TR-FRET dose response biochemical High Throughput Screening assay for agonists of the steroid receptor coactivator 3 (SRC-3) recruitment by the peroxisome proliferator-activated receptor gamma (PPAR gamma): non-selective agonists. [Related pubchem assays: 1301 (Confirmation screen.), 1048 (Primary screen.)]; format: functional
[15] = target: Peroxisome proliferator-activated receptor gamma/Nuclear receptor coactivator 2 (Homo sapiens, UniProt P37231); assay: (§1) TR-FRET dose response biochemical High Throughput Screening assay for agonists of the steroid receptor coactivator 2 (SRC-2) recruitment by the peroxisome proliferator-activated receptor gamma (PPAR gamma): non-selective agonists. [Related pubchem assays: 1297, 1032 ]; format: functional
[16] = target: UDP-galactopyranose mutase (Mycobacterium tuberculosis, UniProt P9WIQ1); assay: Inhibitors of Mycobacterium tuberculosis UDP-galactopyranose mutase (UGM) enzyme Measured in Biochemical System Using Plate Reader - 2105-02_Inhibitor_Dose_CherryPick_Activity. [Related pubchem assays (depositor defined):AID504439]
Chain of UDP-galactopyranose mutase (P9WIQ1 whole entry): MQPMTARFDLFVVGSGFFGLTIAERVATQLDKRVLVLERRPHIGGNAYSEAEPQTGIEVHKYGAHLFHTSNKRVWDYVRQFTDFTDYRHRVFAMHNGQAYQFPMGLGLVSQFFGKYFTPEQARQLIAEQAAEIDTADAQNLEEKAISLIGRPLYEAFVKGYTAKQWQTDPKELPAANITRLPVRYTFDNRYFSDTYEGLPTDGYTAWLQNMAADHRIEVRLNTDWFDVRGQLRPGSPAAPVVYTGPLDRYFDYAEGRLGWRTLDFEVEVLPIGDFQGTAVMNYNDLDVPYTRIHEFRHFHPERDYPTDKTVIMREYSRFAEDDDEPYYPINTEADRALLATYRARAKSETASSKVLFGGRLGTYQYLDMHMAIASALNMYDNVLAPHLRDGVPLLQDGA

Keap1/Nrf2 = Keap1/Nrf2 (Homo sapiens, UniProt Q14145); assay: Keap1-Nrf2 protein-protein interaction inhibitors, dose response, biochemical, fluorescence polarization, cherry-picked samples (AID 588683)
[17] = target: Peroxisome proliferator-activated receptor gamma/Nuclear receptor coactivator 1 (Homo sapiens, UniProt P37231); assay: as §1, with “1 (SRC-1)” for “2 (SRC-2)”, “assays (depositor defined):AID1300, AID1808, AID504735, AID631]” for “assays: 1297, 1032 ]”; format: protein assay
[18] = target: T6, Zinc finger protein mex-5 (Caenorhabditis elegans, UniProt Q9XUB2); assay: MEX-5/TCR-2 RNA interaction inhibitors, dose response, biochemical, C. elegans, fluorescence polarization (AID 1960)
T6 sequence (Q9XUB2 whole entry): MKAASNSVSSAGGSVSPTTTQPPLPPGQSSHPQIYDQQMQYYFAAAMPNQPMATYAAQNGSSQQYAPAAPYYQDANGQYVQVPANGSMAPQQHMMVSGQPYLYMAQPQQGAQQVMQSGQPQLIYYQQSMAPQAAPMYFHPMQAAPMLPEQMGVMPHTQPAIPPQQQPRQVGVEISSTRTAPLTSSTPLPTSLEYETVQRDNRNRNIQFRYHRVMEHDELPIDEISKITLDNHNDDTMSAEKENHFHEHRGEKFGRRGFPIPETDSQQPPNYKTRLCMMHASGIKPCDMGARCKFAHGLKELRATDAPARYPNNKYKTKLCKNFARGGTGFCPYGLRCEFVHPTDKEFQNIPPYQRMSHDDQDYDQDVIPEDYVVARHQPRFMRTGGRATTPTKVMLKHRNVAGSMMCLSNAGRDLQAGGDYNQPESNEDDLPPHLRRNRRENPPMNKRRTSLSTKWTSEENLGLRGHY

[19] = C. albicans growth with fluconazole, confirmation, fluorescence, retest (AID 2467); format: functional, cell-based
[20] = NIH-3T3 fibroblast cytotoxicity, dose response, cytotoxicity control, cell-based, fluorescence, Alamar Blue, secondary assay (AID 2327); format: functional;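 further: NIH-3T3 mouse fibroblasts cultured with fluconazole at 8 µg/mL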
ORF 73 = ORF 73 (Human herpesvirus 8, UniProt O40947); assay: inhibitors of C-LANA binding to LBS DNA, dose response, biochemical, fluorescence polarization, cherry-picked samples (AID 504725); parameters: species or system Human gammaherpesvirus 8;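 further: fluorescence polarization of a labeled DNA duplex reporting LANA DNA binding; potency is for inhibitors that block LANA binding to the DNA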

O=C(CC1=NCCNC(c2ccccc2)C1)c1ccccc1O (stereo not given)
EC50 [1]: 43.1 µM (active) | EC50 (T-cell): 0.565 µM (active) | EC50 [2]: 69.3 µM (active) | EC50 (H4): 67.6 µM (active)

Cc1cccc(NC(=O)CSc2ccc(-c3ccco3)nn2)c1C
IC50 [3]: 71.5 µM (active) | IC50 [4]: > 100 µM (inactive)

COC(=O)Cn1cc(/C=C2\C(=O)NC(=O)N(c3ccccc3)C2=O)c2ccccc21
EC50 [5]: 7.64 µM (active) | IC50 [6]: > 100 µM (inactive) | EC50 [7]: > 300 µM (inconclusive)

O=C(CN1C(=O)c2ccccc2S1(=O)=O)N1CCN(c2ccccc2F)CC1
IC50 (Coagulation factor XII): > 50 µM (inactive)

COc1cccc(NC(=O)c2ccnc(N3CCC(C(=O)NCc4cc(OC)ccc4OC)CC3)c2)c1
EC50 (Caspase-3): > 85.3 µM (inactive) | EC50 (Caspase-7): > 85.3 µM (inactive)

Fc1ccc(CSc2nnc(-c3ccccn3)n2Cc2cccs2)c(C(F)(F)F)c1
EC50 (Mu-type opioid receptor): > 32 µM (inactive) | EC50 [8]: > 32 µM (inactive) | EC50 [9]: 4.46 µM (active) | EC50 [10]: 2.26 µM (active)

O=C(COc1ccc(Cl)cc1)Nc1nnc(-c2ccc(F)c(F)c2)o1
EC50 [11]: 1.5 µM (active)

O=C(NCc1ccc(Cl)cc1Cl)Nc1cncc(F)c1
EC50 [12]: 8.64 µM (active)

CN(Cc1ccccc1)C(=O)C1CCCN(Cc2ccc(Br)cc2)C1 (stereo not given)
AC50 [13]: 74.3 µM (active) | AC50 (Trypanosoma cruzi): 3.01 µM (active)

COc1ccc(C2C(C(=O)c3cccs3)=C(O)C(=O)N2c2nncs2)cc1 (stereo not given)
EC50 [14]: > 79.4 µM (not active) | EC50 [15]: > 79.4 µM (not active) | AC50 [16]: 51.7 µM (active) | EC50 [7]: 0.549 µM (inconclusive) | AC50 (Keap1/Nrf2): 20.3 µM (active) | EC50 [17]: > 79.4 µM (inactive) | EC50 [18]: 0.1 µM (inconclusive) | EC50 [19]: > 38 µM (not active) | EC50 [20]: > 150 µM (inconclusive) | AC50 (ORF 73): 7.29 µM (active)
